Results as given in patent US4332820A, “Substituted benzonitriles having antiviral activity” (The Dow Chemical Company, priority 1980, dated 1982).
Converted amounts (≈) assume the structure as drawn.

Assays:
[1] = tested on: rhinovirus type 1A (RV-1A); test: Tissue culture antiviral testing, RV-1A (cytopathic effect, HeLa cells); assay type: cell-based; conditions: Enterovirus, HeLa cells, NA = not active at the standard test conditions, read-out: Lowest concentration of the compound necessary to cause a 50 percent reduction in cytopathic effect
rhinovirus type 2 (RV-2) = test: Tissue culture antiviral testing, RV-2 (cytopathic effect, HeLa cells); assay type: cell-based; conditions: Enterovirus, HeLa cells, NA = not active at the standard test conditions, read-out: Lowest concentration of the compound necessary to cause a 50 percent reduction in cytopathic effect
Coxsackie A21 virus = test: Continuous Oral Feeding test in mice challenged with Coxsackie A21; assay type: in vivo; conditions: for X^2 (Continuous Oral Feeding, chi-square of deaths): 0.06 % in diet, 240 h, 0.06 % strength
rhinovirus type 5 (RV-5) = test: Tissue culture antiviral testing, RV-5 (cytopathic effect, HeLa cells); assay type: cell-based; conditions: Enterovirus, HeLa cells, read-out: Lowest concentration of the compound necessary to cause a 50 percent reduction in cytopathic effect
[2] = tested on: Coxsackie A21 virus (Cox A21); test: Tissue culture antiviral testing, Cox A21 (cytopathic effect, HeLa cells); assay type: cell-based; conditions: HeLa cells, NA = not active at the standard test conditions, read-out: Lowest concentration of the compound necessary to cause a 50 percent reduction in cytopathic effect
rhinovirus type 8 (RV-8) = test: Tissue culture antiviral testing, RV-8 (cytopathic effect, HeLa cells); assay type: cell-based; conditions: Enterovirus, HeLa cells, read-out: Lowest concentration of the compound necessary to cause a 50 percent reduction in cytopathic effect
[3] = Cytotoxicity in tissue culture (HeLa monolayers); assay type: cell-based; conditions: human; HeLa cells; observed at 48 and 72 hours post-treatment; read-out: Cytotoxicity (concentration of the compound found to be toxic to the cell)
Cox A21 = test: Single Oral Dose test in mice challenged with Cox A21; assay type: in vivo, Swiss male mice; conditions: for X^2 (Single Oral Dose, chi-square of deaths vs virus control): 600 mg/kg, 3 h
[4] = tested on: rhinovirus type 64 (RV-64); test: Tissue culture antiviral testing, RV-64 (cytopathic effect, HeLa cells); assay type: cell-based; conditions: Enterovirus, HeLa cells, NA = not active at the standard test conditions, read-out: Lowest concentration of the compound necessary to cause a 50 percent reduction in cytopathic effect
[5] = tested on: Herpes simplex virus type 1; assay type: cell-based; conditions: at the test concentrations
rhinovirus type 4 = test: Inhibition of multiplication, WI-38 cell culture tubes; assay type: cell-based; conditions: Enterovirus, 25 μg/ml, read-out: inhibition grade
rhinovirus type 29 = test: as above; assay type: cell-based; conditions: Enterovirus, 25 μg/ml, read-out: inhibition grade
Picornaviruses = test: Antiviral activity against picornaviruses, overall (tissue culture and animal testing)
Description: Monolayered HeLa cells in 16 millimeter (mm) tissue culture dishes were treated with 1 ml of culture medium (Eagles medium supplemented with fetal calf serum) containing subject compound at an appropriate concentration or containing no compound at all. Culture mediums such as those described herein are more fully described in standard texts, as for example, Kuchler's Biochemical Methods in Cell Culture and Virology, Dowden, Hutchinson and Ross, Inc., Stroudsberg, Pa. (1977). Following treatment, cells were challenged with 0.05 ml of rhinovirus type 1A (RV-1A), rhinovirus type 2 (RV-2) or Coxsackie A21 virus (Cox A21) in culture medium. Some of the compounds were also tested against rhinovirus type 5 (RV-5), rhinovirus type 8 (RV-8) or rhinovirus type 64 (RV-64). Cell controls received no viruses.
In addition, some of the compounds were tested in animals utilizing the following procedure, hereinafter referred to as the "Single Oral Dose" test. […] Mice were observed daily for 7-10 days post-challenge and deaths recorded. […]
Some of the compounds were also tested in animals utilizing the following procedure, hereinafter referred to as the "Continuous Oral Feeding" test. […] Deaths in both control and experimental groups were recorded for the 10 days and the results analyzed by a chi-square test. […]

influenza WSN = test: Further tissue culture testing; assay type: cell-based; conditions: at the test concentrations
adenovirus (untyped) = assay type: cell-based; conditions: at the test concentrations
rhinovirus type 68 = test: Inhibition of multiplication, WI-38 cell culture tubes; assay type: cell-based; conditions: Enterovirus, 25 μg/ml, read-out: inhibition grade
[6] = tested on: feline calici virus, unconfirmed; assay type: cell-based; conditions: at the test concentrations
Coxsackie B4 = assay type: cell-based; conditions: enterovirus Coxsackie B4
rhinovirus type 39 = test: Inhibition of multiplication, WI-38 cell culture tubes; assay type: cell-based; conditions: Enterovirus, 25 μg/ml, read-out: inhibition grade
rhinovirus type 56 = test: as above; assay type: cell-based; conditions: Enterovirus, 25 μg/ml, read-out: inhibition grade
rhinovirus type 17 = test: as above; assay type: cell-based; conditions: Enterovirus, 25 μg/ml, read-out: inhibition grade
[7] = tested on: Hank's (untyped) rhinovirus; test: as above; assay type: cell-based; conditions: Enterovirus, 25 μg/ml, read-out: inhibition grade
Acute toxicity in rats = conditions: rat, in vivo
parainfluenza 1 = assay type: cell-based; conditions: at the test concentrations
rhinovirus type 6 = test: Inhibition of multiplication, WI-38 cell culture tubes; assay type: cell-based; conditions: Enterovirus, 25 μg/ml, read-out: inhibition grade
rhinovirus type 21 = test: as above; assay type: cell-based; conditions: Enterovirus, 25 μg/ml, read-out: inhibition grade
rhinovirus type 64 = test: as above; assay type: cell-based; conditions: Enterovirus, 25 μg/ml, read-out: inhibition grade
rhinovirus type 58 = test: as above; assay type: cell-based; conditions: Enterovirus, 25 μg/ml, read-out: inhibition grade
rhinovirus type 81 = test: as above; assay type: cell-based; conditions: Enterovirus, 25 μg/ml, read-out: inhibition grade
rhinovirus type 8 = test: as above; assay type: cell-based; conditions: Enterovirus, 25 μg/ml, read-out: inhibition grade
rhinovirus type 19 = test: as above; assay type: cell-based; conditions: Enterovirus, 25 μg/ml, read-out: inhibition grade
rhinovirus type 10 = test: as above; assay type: cell-based; conditions: Enterovirus, 25 μg/ml, read-out: inhibition grade
rhinovirus type 74 = test: as above; assay type: cell-based; conditions: Enterovirus, 25 μg/ml, read-out: inhibition grade
rhinovirus type 13 = test: as above; assay type: cell-based; conditions: Enterovirus, 25 μg/ml, read-out: inhibition grade
influenza A = assay type: cell-based; conditions: at the test concentrations
rhinovirus type 60 = test: Inhibition of multiplication, WI-38 cell culture tubes; assay type: cell-based; conditions: Enterovirus, 25 μg/ml, read-out: inhibition grade
rhinovirus type 59 = test: as above; assay type: cell-based; conditions: Enterovirus, 25 μg/ml, read-out: inhibition grade
influenze PR 8 = assay type: cell-based; conditions: at the test concentrations
[8] = Acute oral toxicity in beagle dogs; conditions: dog, in vivo
Excerpt: Testing in beagle dogs indicated an acute oral toxicity of greater than 2 grams/kg.

Coxsackie B2 = assay type: cell-based; conditions: enterovirus Coxsackie B2
[9] = tested on: parainfluenza NDV (Newcastle's disease virus); assay type: cell-based; conditions: at the test concentrations
rhinovirus type 75 = test: Inhibition of multiplication, WI-38 cell culture tubes; assay type: cell-based; conditions: Enterovirus, 25 μg/ml, read-out: inhibition grade

Which results are given for `N#Cc1cc([N+](=O)[O-])ccc1Oc1ccc(Cl)cc1` [Example 4, 2-(4-Chlorophenoxy)-5-nitrobenzonitrile]?
EC50 [1]: ≤ 0.625 µg/mL; EC50 (rhinovirus type 2 (RV-2)): ≤ 0.625 µg/mL; X^2 (Continuous Oral Feeding, chi-square of deaths) (Coxsackie A21 virus): 10.61; EC50 (rhinovirus type 5 (RV-5)): < 0.3 µg/mL; EC50 [2]: 0.625 µg/mL (≈ 2.28 µM); EC50 (rhinovirus type 8 (RV-8)): < 6 µg/mL; MCC [3]: > 100 µg/mL; X^2 (Single Oral Dose, chi-square of deaths vs virus control) (Cox A21): 0.252

With `N#Cc1cc([N+](=O)[O-])ccc1Oc1ccc(Cl)c(Cl)c1` [Example 1, 2-(3,4-Dichlorophenoxy)-5-nitrobenzonitrile] as the molecule, how does the EC50 [4] read?
The EC50 was 0.156 µg/mL (≈ 0.505 µM).

And the EC50 [1]?
Its EC50 is 0.5 µg/mL (≈ 1.62 µM).

And the “effect on virus multiplication” value [5]?
The value was “did not affect the multiplication”.

And the inhibition at 25 µg/mL (rhinovirus type 4)?
The inhibition at 25 µg/mL was at least 75%.

What about the inhibition at 25 µg/mL (rhinovirus type 29) of the same molecule?
The inhibition at 25 µg/mL was at least 75%.

And the effectiveness against picornaviruses (Picornaviruses; general statement)?
Its effectiveness against picornaviruses is “particularly effective against Picornaviruses”.

And the “antiviral activity compared with 5-(3,4-dichlorophenoxy)-2-nitrobenzonitrile” value (Picornaviruses; standard tissue culture and animal testing)?
The value was “markedly greater antiviral activity”.

What about the “effect on virus multiplication” value (influenza WSN) of the same molecule?
The value was “did not affect the multiplication”.

What about the “effect on virus multiplication” value (adenovirus (untyped)) of the same molecule?
The value was “did not affect the multiplication”.

What about the inhibition at 25 µg/mL (rhinovirus type 68) of the same molecule?
Its inhibition at 25 µg/mL is at least 75%.

And the “effect on virus multiplication” value [6]?
The value was “did not affect the multiplication”.

And the inhibitory activity (Coxsackie B4)?
Its inhibitory activity is “displayed inhibitory activity”.

And the inhibition at 25 µg/mL (rhinovirus type 39)?
The inhibition at 25 µg/mL was at least 75%.

What about the inhibition at 25 µg/mL (rhinovirus type 56) of the same molecule?
Its inhibition at 25 µg/mL is at least 75%.

And the inhibition at 25 µg/mL (rhinovirus type 17)?
Its inhibition at 25 µg/mL is at least 75%.

What about the EC50 (rhinovirus type 2 (RV-2)) of the same molecule?
The EC50 was 0.25 µg/mL (≈ 0.809 µM).

What about the “antiviral activity in the "Continuous Oral Feeding" test” value (Coxsackie A21 virus; in words, 95% confidence level) of the same molecule?
Its value is “exhibited antiviral activity”.

What about the “X^2 (Continuous Oral Feeding, chi-square of deaths)” value (Coxsackie A21 virus) of the same molecule?
The value was 23.62.

What about the inhibition at 25 µg/mL [7] of the same molecule?
Its inhibition at 25 µg/mL is at least 75%.

And the EC50 (rhinovirus type 5 (RV-5))?
Its EC50 is 0.5 µg/mL (≈ 1.62 µM).

What about the LD50 (Acute toxicity in rats; ip, intraperitoneal, read-out: acute toxicity, intraperitoneal administration) of the same molecule?
Its LD50 is over 2000 mg/kg.

What about the LD50 (Acute toxicity in rats; oral, read-out: acute oral toxicity) of the same molecule?
The LD50 was about 5000 mg/kg.

And the “effect on virus multiplication” value (parainfluenza 1)?
The value was “did not affect the multiplication”.

What about the inhibition at 25 µg/mL (rhinovirus type 6) of the same molecule?
Its inhibition at 25 µg/mL is at least 75%.

What about the inhibition at 25 µg/mL (rhinovirus type 21) of the same molecule?
The inhibition at 25 µg/mL was at least 75%.

And the inhibition at 25 µg/mL (rhinovirus type 64)?
The inhibition at 25 µg/mL was at least 75%.

And the inhibition at 25 µg/mL (rhinovirus type 58)?
The inhibition at 25 µg/mL was at least 75%.

And the inhibition at 25 µg/mL (rhinovirus type 81)?
Its inhibition at 25 µg/mL is at least 75%.

What about the inhibition at 25 µg/mL (rhinovirus type 8) of the same molecule?
The inhibition at 25 µg/mL was at least 75%.

And the inhibition at 25 µg/mL (rhinovirus type 19)?
Its inhibition at 25 µg/mL is at least 75%.

What about the inhibition at 25 µg/mL (rhinovirus type 10) of the same molecule?
Its inhibition at 25 µg/mL is at least 75%.

What about the EC50 [2] of the same molecule?
Its EC50 is 0.25 µg/mL (≈ 0.809 µM).

And the inhibition at 25 µg/mL (rhinovirus type 74)?
Its inhibition at 25 µg/mL is at least 75%.

What about the inhibition at 25 µg/mL (rhinovirus type 13) of the same molecule?
Its inhibition at 25 µg/mL is at least 75%.

And the “effect on virus multiplication” value (influenza A)?
Its value is “did not affect the multiplication”.

What about the EC50 (rhinovirus type 8 (RV-8)) of the same molecule?
Its EC50 is 0.25 µg/mL (≈ 0.809 µM).

And the MCC [3]?
Its MCC is over 100 µg/mL.

And the inhibition at 25 µg/mL (rhinovirus type 60)?
Its inhibition at 25 µg/mL is at least 75%.

What about the inhibition at 25 µg/mL (rhinovirus type 59) of the same molecule?
The inhibition at 25 µg/mL was at least 75%.

And the “effect on virus multiplication” value (influenze PR 8)?
The value was “did not affect the multiplication”.

And the LD50 [8]?
The LD50 was over 2000 mg/kg.

And the inhibitory activity (Coxsackie B2)?
The inhibitory activity was “displayed inhibitory activity”.

What about the “antiviral activity in the "Single Oral Dose" test” value (Cox A21; in words, 95% confidence level) of the same molecule?
Its value is “exhibited antiviral activity”.

And the “X^2 (Single Oral Dose, chi-square of deaths vs virus control)” value (Cox A21)?
The value was 5.36.

And the “effect on virus multiplication” value [9]?
Its value is “did not affect the multiplication”.

And the inhibition at 25 µg/mL (rhinovirus type 75)?
The inhibition at 25 µg/mL was at least 75%.

Which results are given for `N#Cc1cc([N+](=O)[O-])ccc1Oc1ccc(Cl)cc1Cl` [Example 2, 2-(2,4-Dichlorophenoxy)-5-nitrobenzonitrile]?
EC50 [1]: 0.625 µg/mL (≈ 2.02 µM); EC50 (rhinovirus type 2 (RV-2)): 0.625 µg/mL (≈ 2.02 µM); X^2 (Continuous Oral Feeding, chi-square of deaths) (Coxsackie A21 virus): 1.38; EC50 (rhinovirus type 5 (RV-5)): 2.5 µg/mL (≈ 8.09 µM); EC50 [2]: 1.25 µg/mL (≈ 4.04 µM); EC50 (rhinovirus type 8 (RV-8)): 2.5 µg/mL (≈ 8.09 µM); MCC [3]: > 100 µg/mL; X^2 (Single Oral Dose, chi-square of deaths vs virus control) (Cox A21): 3.659
